{"source": "EPA's ToxRefDB 2", "key": {"[1]": {"test_system": "dog", "conditions": "Chronic toxicity, beagle, Oral, Gavage/Intubation, dose end: 26 week, group: systemic"}, "[2]": {"test_system": "rat", "conditions": "Fertility (Segment I), sprague dawley, Oral, Gavage/Intubation, dose end: 6 GD"}, "[3]": {"test_system": "dog", "conditions": "Subchronic oral toxicity in nonrodent, beagle, Gavage/Intubation, dose end: 1 month, group: systemic"}, "[4]": {"test_system": "rat", "conditions": "Sub-acute repeat dose toxicity; sprague dawley; Oral; Gavage/Intubation; dose end: 1 month; group: systemic; systemic / clinical chemistry / protein / protein + systemic / clinical chemistry / alanine aminotransferase (alt/sgpt) / alanine …"}, "[5]": {"test_system": "rat", "conditions": "Fertility (Segment I), sprague dawley, Oral, Gavage/Intubation, dose end: 63 day, group: parental"}, "[6]": {"test_system": "rat", "conditions": "Chronic toxicity; sprague dawley; Oral; Gavage/Intubation; dose end: 26 week; group: systemic; systemic / clinical chemistry / alanine aminotransferase (alt/sgpt) / alanine aminotransferase (alt/sgpt) + systemic / clinical chemistry / …"}, "[7]": {"test_system": "primate", "conditions": "Sub-acute repeat dose toxicity; macaque; Oral; Gavage/Intubation; dose end: 35 day; group: systemic; systemic / clinical chemistry / bilirubin / total bilirubin"}, "[8]": {"test_system": "rat", "conditions": "Combined chronic toxicity/carcinogenicity; fischer; Oral; Gavage/Intubation; dose end: 2 year; group: systemic; systemic / pathology microscopic / kidney / cyst + systemic / pathology microscopic / kidney / hyperplasia + systemic / pathology …"}, "[9]": {"test_system": "mouse", "conditions": "Carcinogenicity, b6c3f1, Oral, Gavage/Intubation, dose end: 2 year, group: systemic"}, "[10]": {"test_system": "rat", "conditions": "Subchronic oral toxicity in rodents, fischer, Gavage/Intubation, dose end: 13 week, group: systemic"}, "[11]": {"test_system": "mouse", "conditions": "Subchronic oral toxicity in rodents, b6c3f1, Gavage/Intubation, dose end: 13 week, group: systemic, systemic / pathology microscopic / kidney / fibrosis + systemic / pathology microscopic / kidney / inflammation + systemic / pathology …"}, "[12]": {"conditions": "systemic / organ weight / adrenal gland / absolute + systemic / organ weight / adrenal gland / relative to body weight"}, "[13]": {"conditions": "systemic / organ weight / adrenal gland / absolute + systemic / organ weight / adrenal gland / relative to body weight + systemic / clinical…"}, "[14]": {"conditions": "group: maternal, reproductive / reproductive performance / estrous cycle / abnormal"}, "[15]": {"conditions": "group: parental, systemic / in life observation / body weight / body weight gain + systemic / in life observation / clinical signs / salivation + systemic / …"}, "[16]": {"conditions": "systemic / in life observation / body weight / body weight + systemic / organ weight / thymus / relative to body weight"}, "[17]": {"conditions": "systemic / in life observation / body weight / body weight + systemic / organ weight / thymus / relative to body weight + systemic / …"}, "[18]": {"conditions": "systemic / in life observation / body weight / body weight + systemic / in life observation / body weight / body weight gain + systemic / in…"}, "[19]": {"conditions": "systemic / pathology microscopic / lung / hyperplasia"}, "[20]": {"conditions": "systemic / pathology microscopic / lung / hyperplasia + systemic / pathology microscopic / liver / adenoma + systemic / pathology …"}, "[21]": {"conditions": "systemic / in life observation / clinical signs / motor activity + systemic / in life observation / body weight / body weight + systemic / …"}, "[22]": {"conditions": "systemic / in life observation / clinical signs / salivation"}}}
{"smiles": "Cc1cc2c(cc1C(F)(F)F)N(C(=O)Nc1ccc(Oc3cccnc3C)nc1)CC2.Cl", "values": [{"measurement": "LEL", "setting": "[1]; [12]", "result": 2, "unit": "mg/kg/day"}, {"measurement": "NEL", "setting": "[1]; [12]", "result": "< 2", "unit": "mg/kg/day"}, {"measurement": "LOAEL", "setting": "[1]; [13]", "result": "> 300", "unit": "mg/kg/day"}, {"measurement": "NOAEL", "setting": "[1]; [13]", "result": "≥ 300", "unit": "mg/kg/day"}, {"measurement": "LEL", "setting": "[2]; [14]", "result": 20, "unit": "mg/kg/day"}, {"measurement": "LOAEL", "setting": "[2]; [14]", "result": "> 20", "unit": "mg/kg/day"}, {"measurement": "NEL", "setting": "[2]; [14]", "result": 2, "unit": "mg/kg/day"}, {"measurement": "NOAEL", "setting": "[2]; [14]", "result": "≥ 20", "unit": "mg/kg/day"}, {"measurement": "LEL", "setting": "[2]; [15]", "result": 2, "unit": "mg/kg/day"}, {"measurement": "LOAEL", "setting": "[2]; [15]", "result": "> 20", "unit": "mg/kg/day"}, {"measurement": "NEL", "setting": "[2]; [15]", "result": 0.2, "unit": "mg/kg/day"}, {"measurement": "NOAEL", "setting": "[2]; [15]", "result": "≥ 20", "unit": "mg/kg/day"}, {"measurement": "LEL", "setting": "[3]; [16]", "result": 2, "unit": "mg/kg/day"}, {"measurement": "NEL", "setting": "[3]; [16]", "result": "< 2", "unit": "mg/kg/day"}, {"measurement": "LOAEL", "setting": "[3]; [17]", "result": "> 1000", "unit": "mg/kg/day"}, {"measurement": "NOAEL", "setting": "[3]; [17]", "result": "≥ 1000", "unit": "mg/kg/day"}, {"measurement": "LEL", "setting": "[4]", "result": 2, "unit": "mg/kg/day"}, {"measurement": "LOAEL", "setting": "[4]", "result": "> 200", "unit": "mg/kg/day"}, {"measurement": "NEL", "setting": "[4]", "result": "< 2", "unit": "mg/kg/day"}, {"measurement": "NOAEL", "setting": "[4]", "result": "≥ 200", "unit": "mg/kg/day"}, {"measurement": "LOAEL", "setting": "[5]; [18]", "result": "> 200", "unit": "mg/kg/day"}, {"measurement": "NEL", "setting": "[5]; [18]", "result": 2, "unit": "mg/kg/day"}, {"measurement": "NOAEL", "setting": "[5]; [18]", "result": "≥ 200", "unit": "mg/kg/day"}, {"measurement": "LEL", "setting": "[5]; systemic / in life observation / body weight / body weight gain", "result": 20, "unit": "mg/kg/day"}, {"measurement": "LEL", "setting": "[6]", "result": 2, "unit": "mg/kg/day"}, {"measurement": "LOAEL", "setting": "[6]", "result": "> 100", "unit": "mg/kg/day"}, {"measurement": "NEL", "setting": "[6]", "result": "< 2", "unit": "mg/kg/day"}, {"measurement": "NOAEL", "setting": "[6]", "result": "≥ 100", "unit": "mg/kg/day"}, {"measurement": "LEL", "setting": "[7]", "result": 1000, "unit": "mg/kg/day"}, {"measurement": "LOAEL", "setting": "[7]", "result": "> 1000", "unit": "mg/kg/day"}, {"measurement": "NEL", "setting": "[7]", "result": 300, "unit": "mg/kg/day"}, {"measurement": "NOAEL", "setting": "[7]", "result": "≥ 1000", "unit": "mg/kg/day"}]}
{"smiles": "c1ccc2occc2c1", "note": "[2,3-Benzofuran]", "values": [{"measurement": "LEL", "setting": "[8]", "result": 30, "unit": "mg/kg/day"}, {"measurement": "LOAEL", "setting": "[8]", "result": 30, "unit": "mg/kg/day"}, {"measurement": "NEL", "setting": "[8]", "result": "< 30", "unit": "mg/kg/day"}, {"measurement": "NOAEL", "setting": "[8]", "result": "< 30", "unit": "mg/kg/day"}, {"measurement": "LOAEL", "setting": "[9]; [19]", "result": 60, "unit": "mg/kg/day"}, {"measurement": "NOAEL", "setting": "[9]; [19]", "result": "< 60", "unit": "mg/kg/day"}, {"measurement": "LEL", "setting": "[9]; [20]", "result": 60, "unit": "mg/kg/day"}, {"measurement": "NEL", "setting": "[9]; [20]", "result": "< 60", "unit": "mg/kg/day"}, {"measurement": "LOAEL", "setting": "[10]; [21]", "result": 125, "unit": "mg/kg/day"}, {"measurement": "NOAEL", "setting": "[10]; [21]", "result": 62.5, "unit": "mg/kg/day"}, {"measurement": "LEL", "setting": "[10]; [22]", "result": 31.2, "unit": "mg/kg/day"}, {"measurement": "NEL", "setting": "[10]; [22]", "result": "< 31.2", "unit": "mg/kg/day"}, {"measurement": "LEL", "setting": "[11]", "result": 250, "unit": "mg/kg/day"}, {"measurement": "LOAEL", "setting": "[11]", "result": 250, "unit": "mg/kg/day"}, {"measurement": "NEL", "setting": "[11]", "result": 125, "unit": "mg/kg/day"}, {"measurement": "NOAEL", "setting": "[11]", "result": 125, "unit": "mg/kg/day"}]}
